Results on three molecules are retold here after paper PMC7682835, “A novel G protein-coupled receptor for starfish gonadotropic hormone, relaxin-like gonad-stimulating peptide” (PLoS ONE, 2020).

One test concerns starfish. The conditions noted are these: injection of 1-MeAde compared with RGP; cited from earlier work. The source says:
(§1) Although RGP is the primary mediator of oocyte maturation and ovulation, the effect of RGP is indirect. RGP secreted by radial nerve cords induces ovarian follicle cells to produce 1-methyladenine (1-MeAde) as a maturation-inducing hor ...

For another test, the system named is PpeRGPR. Nature of the test: Intracellular calcium mobilization (Fluo-8) in Sf9 cells transfected with Gαq16-fused PpeRGPR. The class given is cell-based, Patiria pectinifera. The conditions noted are these: for Effect on calcium signaling (result in words): Fluo-8, 490/514 nm. The method, then:
Functional characterization of PpeRGPR was performed using Sf9 cells and baculovirus-based expression methods, as previously reported. The open reading frame (ORF) of human Gαq16 protein (OriGene, Rockville, MD, USA), which couples with GPCRs and triggers intracellular calcium mobilization upon binding of a specific ligand [33] was subcloned into the XbaI site of the pFastbacI plasmid (Invitrogen, Waltham, MA, USA). PpeRGPR was then cloned into the NotI/XbaI site of the Gαq16-ligated pFastbacI plasmids. Transformation of competent cells with the PpeRGPR-Gαq16-pFastbacI plasmid and the resulting bacmid isolation was performed according to the manufacturer’s instructions for the Bac-to-Bac system (Thermo Fisher Scientific, Waltham, MA, USA).
Sf9 cells (Thermo Fisher Scientific) were grown in Sf900 II (Thermo Fisher Scientific) containing 10% FBS (Sigma-Aldrich) at 28°C. PpeRGPR-Gαq16-recombinant baculoviruses were prepared from Sf9 cells transfected with the above bacmids using Cellfectin II (Thermo Fisher Scientific), titrated, isolated, and transiently transfected into Sf9 cells, as previously described. Sf9 cells were plated at 1.2×10^5 cells/well (on a 96-well plate) or 2.4×10^5 cells (on a glass bottom dish) prior to transfection. Forty-eight hours after transfection, Sf9 cells were loaded for 30 min with 2.5 μM of Fluo-8 AM (AAT Bioquest, Sunnyvale, CA, USA) diluted in loading buffer [HBSS supplemented with 1.25 mM probenecid and 0.04% (wt/vol) pluronic F-127] [32]. Cell membrane expression of PpeRGPR-fused human Gαq16 was confirmed by immunostaining using the anti-Gαq16 antibody (OriGene, TA318890) in comparison with non-transfected Sf9 cells (wild type). Dose-dependent responses to PpeRGP or AamRGP were measured using a FlexStation II-automated apparatus (Molecular Devices, San Jose, CA, USA) at the excitation/emission wavelengths of 490/514 nm. Calcium accumulation data were analyzed using Prism v6 (GraphPad Software, San Diego, CA, USA) to fit to a sigmoidal concentration-response curve, as previously described. The dose-response curve was statistically evaluated by analysis of variance. Significant activation of PpeRPGR by PpeRGP compared with AamRGP at each concentration was also examined by Student t test.
Fig 2 Intracellular calcium mobilization in Sf9 cells. (A, B) Sf9 cells were transfected with Gαq16- fused PpeRGPR-recombinant baculovirus (A) and non-transfected Sf9 cells were used as wild type controls (B). Expression of PpeRGPR in Sf9 cells was examined by immunostaining using an anti-Gαq16 antibody. Immunoreactivity was observed using a fluorescence microscope after incubation with an Alexa Fluor 488-conjugated secondary antibody. […] Scale bars represent 50 μm. […] Each dose-response curve was statistically evaluated by analysis of variance. […]
On the technique in general: Calcium flux is commonly read through the fluorescence of an indicator in the cells.

Test [1] deals with Patiria pectinifera ovarian follicle cells. Nature of the test: 1-MeAde production by follicle cells. The class given is cell-based. The conditions noted are these: follicle cells (ten million in 1 ml ASW), 2 h at 20°C; 1-MeAde released into medium by biological assay; three independent samples. The method, then: (§2) Ten million follicle cells were incubated for 2 h at 20°C in 1 ml of ASW in the presence of PpeRGP or AamRGP, with occasional shaking. The cell suspension was then centrifuged at 1,000 g for 1 min and quickly frozen in liquid nitrogen. Supernatants were analyzed for the amount of 1-MeAde released from follicle cells. The concentration of 1-MeAde was determined by a method previously described, using authentic 1-MeAde as the standard reference. The frozen follicle cells were analyzed for the amount of intracellular cAMP using a BIOTRAK cAMP EIA system (GE Healthcare). The mean was determined from three separate assays using three different animals and standard error of the mean (SEM).
(§3) Fig 4 Effect of RGP on 1-MeAde and cAMP production in Patiria pectinifera ovarian follicle cells. (A) Amino acid alignments of A- and B-chains in P. pectinifera (PpeRGP) and Asterias amurensis (AamRGP). To illustrate the conserved features, the amino acid types are color coded according to their properties, with basic residues in blue (Arg, Lys and His), acidic residues in red (Glu and Asp), hydrophobic residues in green (Ala, Val, Ile, Phe, Trp, Tyr, Pro and Met), hydrophilic in black (Ser, Thr, Asn and Gln) and glycine in light blue. The cysteine residues are highlighted in yellow and disulfide bonds are shown with solid dark red lines. […] Intracellular cAMP content was determined by EIA. […]

Test [2] shares this test system. The test is described as follows: Intracellular cAMP production in follicle cells. It is filed as cell-based. Particulars: follicle cells (ten million in 1 ml ASW), 2 h at 20°C; intracellular cAMP by EIA; three independent samples. On the procedure: as §2, §3
(cAMP levels reflect the balance of adenylyl cyclase and phosphodiesterase activity.)

The test system of test [3] is PpeRGPR in P. pectinifera ovarian follicle cells. Nature of the test: Competitive binding assay, 125I-PpeRGP versus unlabeled RGP, follicle cell homogenates. The conditions noted are these: 2 h at 20°C, four separate assays; for Effect of unlabeled peptide on 125I-PpeRGP binding (result in words): follicle cell homogenates (25 μg of protein), 125I-PpeRGP about 100,000 cpm, final concentration 1.1 pM, total volume 0.5 ml, four animals. The arrangement: species or system Patiria pectinifera. The method, then: Follicle cells were homogenized using a Teflon homogenizer in 25 mM Tris-HCl (pH 7.4) containing 10 mM MgCl2. Protein concentrations were measured using a Bio-Rad protein assay kit (Bio-Rad Laboratories, Hercules, CA, USA).
The radioiodination of PpeRGP with Na^125I (carrier free; GE Healthcare, Buckinghamshire, UK) was carried out at room temperature in accordance with the modified lactoperoxidase method, as described previously. The specific activity of radioiodinated PpeRGP (^125I-PpeRGP) was estimated to be 150 μCi/μg.
The specificity of RGP binding was examined using whole homogenates of follicle cells. Preparations were adjusted to yield a protein concentration of 10 mg/ml with the homogenizing medium plus 0.1% (wt/vol) BSA, and stored at -80°C until use. The binding assay was performed using competition experiments between labeled PpeRGP and unlabeled PpeRGP or AamRGP, as described previously. Data were obtained from four separate assays using follicle cells from ovaries of four different animals.
Fig 3 Competitive inhibition curves of ^125I-PpeRGP binding to Patiria pectinifera ovarian follicle cells in the presence of unlabeled PpeRGP or AamRGP. P. pectinifera ovarian follicle cell homogenates (25 μg of protein) were incubated for 2 h at 20°C in assay buffer containing ^125I-PpeRGP (about 100,000 cpm; 2.087 pg/[…]; total volume 0.5 ml, final concentration 1.1 pM) in the presence of serially diluted unlabeled PpeRGP (●) or AamRGP (○). Specific binding was obtained by subtracting nonspecific binding from total binding. Data were obtained from four separate assays using follicle cells from ovaries of four different animals.

The test system of test [4] is ovarian fragments of P. pectinifera. The conditions noted are these: synthetic PpeRGP, within 30 min of incubation; cited from earlier work.
Excerpt: as §1

Test [5] relates to males and females of P. pectinifera. Particulars: injection of synthetic PpeRGP into males and females with fully-grown testes and ovaries; cited from earlier work.
Excerpt: as §1

The test system of test [6] is membrane preparation of ovarian follicle cells of P. pectinifera. The conditions noted are these: cited from earlier work.
Test [7] concerns Patiria pectinifera ovarian follicle cells. Particulars: isolated follicle cells cultured with PpeRGP, cited from earlier work. The source says:
However, the RGP receptor (RGPR) remains to be identified in s ...

Another test concerns P. pectinifera ovaries. Particulars: approximately; in vitro spawning; read-out: Median effective concentration of in vitro spawning; cited from earlier work. The source says: Since cDNA encoding the PpeRGPR was cloned from P. pectinifera follicle cells (Fig 1), PpeRGPR should be expressed on follicle cell surface. […] In contrast to PpeRGP, AamRGP had no effects on binding to P. pectinifera follicle cells (Fig 3), as well as 1-MeAde and cAMP production (Fig 4B) or calcium signals in PpeRGPR-expressing Sf9 cells (Fig 2C). […] Based on 3D structural models, P^A17 of PpeRGP and R^A18 of AamRGP are located near their respective B-cha ...

[8] abbreviates: Sf9 cells with Gαq16-fused PpeRGPR, three to seven independent samples.

For the molecule `Cn1cnc2ncnc-2c1N` [1-MeAde, 1-methyladenine], the “Interval preceding the discharge of gametes after injection (result in words)” value in the test with starfish is recorded as “almost equal to those found after injection of RGP”.
Regarding “relaxin-like gonad-stimulating peptide of Asterias amurensis [AamRGP, reference compound]”, in the test on PpeRGPR (setting [8]), the “Effect on calcium signaling (result in words)” value is reported as “no effect on calcium signaling”. In addition, the “Effect on 1-MeAde production (result in words)” value in test [1] is given as “no effects”. Further, in test [2], the “Effect on cAMP production (result in words)” value is “no effects”. Besides, the “Effect of unlabeled peptide on 125I-PpeRGP binding (result in words)” value in test [3] is “no effect on ^125I-PpeRGP binding”.
Broadly, the Kd is the concentration at which binding is half-saturated. Regarding “relaxin-like gonad-stimulating peptide of Patiria pectinifera [PpeRGP]”, the EC50 in the test on PpeRGPR (Sf9 cells transfected with Gαq16-fused PpeRGPR baculovirus, 48 h, Fluo-8 AM 2.5 μM, FlexStation II, 490/514 nm, sigmoidal fit, three to seven independent samples, read-out: EC50, calcium signaling) was 11.1 nM; in the test with P. pectinifera ovaries, 1 to 2 nM. For the same molecule, the “Concentration above which calcium signaling is significantly increased” value in the test with PpeRGPR (Sf9 cells with Gαq16-fused PpeRGPR, Fluo-8) is “above 1 nM”. Also, the “Effect on calcium signaling (result in words)” value with PpeRGPR (setting [8]) was “significantly increased calcium signaling at concentrations above 1 nM in a dose-dependent manner”. Also, the “Induction of oocyte maturation and ovulation (result in words)” value in test [4] was “induced oocyte maturation and ovulation”. Further, the “Spawning behavior and spawning after injection (result in words)” value in [5] is “spawning behavior and subsequent spawning were observed”. For the same molecule, in test [6], the “Binding to follicle cell membrane preparation (result in words)” value is “binds specifically”. In addition, the “1-MeAde production in isolated follicle cells (result in words)” value in test [7] (coinciding with cAMP increase) is on record as “increase”. Also, the “cAMP production in isolated follicle cells (result in words)” value in [7] is “dose-related increase”. In addition, the Kd in test [3] (Scatchard plot analysis, follicle cell homogenates, 125I-PpeRGP, read-out: Dissociation constant (Kd)) was approximately 0.67 nM. In addition, the “Effect of unlabeled peptide on 125I-PpeRGP binding (result in words)” value in test [3] was “decreased in a dose-dependent manner”.
